Measured values: patent publication US7932387B2, “Crystalline forms of rosuvastatin calcium salt” (BASF SE, priority 2005, dated 2011)
Counter-ions that a name gives are not always drawn.

Key:
[1] = Solubility in water and in physiological liquids (comparison of solid forms); format: physicochemical; conditions: compared with form A; qualitative statement
[2] = Chemical and physical stability (comparison of solid forms); format: physicochemical; conditions: compared with the amorphous form; qualitative statement

For `CC(C)c1nc(N(C)S(C)(=O)=O)nc(-c2ccc(F)cc2)c1/C=C/[C@@H](O)C[C@@H](O)CC(=O)O` [Form B, bis[(E)-7-[4-(4-fluorophenyl)-6-isopropyl-2-[methyl(methylsulfonyl)amino]pyrimidin-5-yl](3R,5S)-3,5-dihydroxyhept-6-enoic acid] calcium salt], the “solubility in water and in physiological liquids” value [1] was “better soluble in water and in physiological liquids than form A” and the “chemical and physical stability” value [2] was “chemically and physically more stable than the amorphous form”.
